Reference: ChEMBL document CHEMBL4811267, “Structurally Diverse Diterpenoids from the Roots of Salvia deserta Based on Nine Different Skeletal Types” (J Nat Prod, 2021)

What was measured:
MCF7 = assay: Cytotoxicity against human MCF7 cells assessed as reduction in cell viability after 48 hrs by MTS assay; assay type: functional, cell-based; settings: MCF7, 48 h
A549 = assay: Cytotoxicity against human A549 cells assessed as reduction in cell viability after 48 hrs by MTS assay; assay type: functional, cell-based; settings: A549, 48 h
BEAS-2B = assay: Cytotoxicity against human BEAS2B cells assessed as reduction in cell viability after 48 hrs by MTS assay; assay type: cell-based
SW480 = assay: Cytotoxicity against human SW480 cells assessed as reduction in cell viability after 48 hrs by MTS assay; assay type: functional, cell-based; settings: SW480, 48 h
HL-60 = assay: Cytotoxicity against human HL60 cells assessed as reduction in cell viability after 48 hrs by MTS assay; assay type: functional, cell-based; settings: HL-60, 48 h
SMMC-7721 = assay: Cytotoxicity against human SMMC-7721 cells assessed as reduction in cell viability after 48 hrs by MTS assay; assay type: functional, cell-based; settings: SMMC-7721, 48 h

SMILES: CC(C)c1cc2c(cc1O)[C@@]1(C)CCCC(C)(C)[C@@H]1CC2=O [SUGIOL]
- IC50 (MCF7): > 10 µM
- IC50 (A549): > 10 µM
- IC50 (BEAS-2B): > 10 µM
- IC50 (SW480): > 10 µM
- IC50 (HL-60): > 10 µM
- IC50 (SMMC-7721): > 10 µM

SMILES: CC(C)c1cc2c(cc1O)[C@@]1(C)C[C@H](O)CC(C)(C)[C@@H]1CC2
- IC50 (MCF7): > 10 µM
- IC50 (A549): > 10 µM
- IC50 (BEAS-2B): > 10 µM
- IC50 (SW480): > 10 µM
- IC50 (HL-60): > 10 µM
- IC50 (SMMC-7721): > 10 µM

SMILES: CC(C)c1cc2c(c(O)c1O)[C@@]1(C)CCC[C@](C)(CO)C1=C(O)C2=O
- IC50 (MCF7): > 10 µM
- IC50 (A549): > 10 µM
- IC50 (BEAS-2B): > 10 µM
- IC50 (SW480): > 10 µM
- IC50 (HL-60): > 10 µM
- IC50 (SMMC-7721): > 10 µM

SMILES: CC(C)c1cc2c(c(O)c1O)[C@@]1(C)CCCC(C)(C)C1=CC2=O [SALVINOLONE]
- IC50 (MCF7): > 10 µM
- IC50 (A549): > 10 µM
- IC50 (BEAS-2B): > 10 µM
- IC50 (SW480): > 10 µM
- IC50 (HL-60): > 10 µM
- IC50 (SMMC-7721): > 10 µM

SMILES: COc1c(C(C)C)cc2c(c1O)[C@@]1(C)CCCC(C)(C)[C@@H]1CC2=O [CRYPTOJAPONOL]
- IC50 (MCF7): > 10 µM
- IC50 (A549): > 10 µM
- IC50 (BEAS-2B): > 10 µM
- IC50 (SW480): > 10 µM
- IC50 (HL-60): > 10 µM
- IC50 (SMMC-7721): > 10 µM

SMILES: COc1c(O)c2c(c(C=O)c1C(C)C)[C@H](O)[C@H]1C(C)(C)CCC[C@]21C
- IC50 (MCF7): > 10 µM
- IC50 (A549): > 10 µM
- IC50 (BEAS-2B): > 10 µM
- IC50 (SW480): > 10 µM
- IC50 (HL-60): > 10 µM
- IC50 (SMMC-7721): > 10 µM

SMILES: CC(C)C1=C(O)C(=O)C2=C(C=C[C@H]3C(C)(C)CCC[C@]3(C)O2)C1=O
- IC50 (MCF7): > 10 µM
- IC50 (A549): > 10 µM
- IC50 (BEAS-2B): > 10 µM
- IC50 (SW480): > 10 µM
- IC50 (HL-60): > 10 µM
- IC50 (SMMC-7721): > 10 µM

SMILES: CC(C)c1cc2c(cc1O)C=C[C@H]1C(C)(C)CCC[C@]21C
- IC50 (MCF7): > 10 µM
- IC50 (A549): > 10 µM
- IC50 (BEAS-2B): > 10 µM
- IC50 (SW480): > 10 µM
- IC50 (HL-60): > 10 µM
- IC50 (SMMC-7721): > 10 µM

SMILES: CC(C)C1=C(O)C(=O)C2=C(C1=O)[C@H](O)[C@H]1C(C)(C)CCC[C@]21C
- IC50 (MCF7): > 10 µM
- IC50 (A549): > 10 µM
- IC50 (BEAS-2B): > 10 µM
- IC50 (SW480): > 10 µM
- IC50 (HL-60): > 10 µM
- IC50 (SMMC-7721): > 10 µM

SMILES: CC(C)c1cc(C(=O)O)c2c(c1O)O[C@]1(O)C(C)(C)[C@@H](O)CC[C@]21C
- IC50 (MCF7): > 10 µM
- IC50 (A549): > 10 µM
- IC50 (BEAS-2B): > 10 µM
- IC50 (SW480): > 10 µM
- IC50 (HL-60): > 10 µM
- IC50 (SMMC-7721): > 10 µM

SMILES: CC(C)c1cc(C=O)c2c(c1O)OC(O)[C@H]1C(C)(C)CCC[C@]21C (some centres undefined)
- IC50 (MCF7): > 10 µM
- IC50 (A549): > 10 µM
- IC50 (BEAS-2B): > 10 µM
- IC50 (SW480): > 10 µM
- IC50 (HL-60): > 10 µM
- IC50 (SMMC-7721): > 10 µM

SMILES: CC(C)c1cc2c(c(O)c1O)[C@@]1(C)CCCC(C)(C)[C@@H]1[C@H](O)C2=O
- IC50 (MCF7): > 10 µM
- IC50 (A549): > 10 µM
- IC50 (BEAS-2B): > 10 µM
- IC50 (SW480): > 10 µM
- IC50 (HL-60): > 10 µM
- IC50 (SMMC-7721): > 10 µM

SMILES: CC(C)c1cc2c(c(O)c1O)[C@@]1(C)CCCC(C)(C)[C@@H]1CC2=O [DEMETHYLCRYPTOJAPONOL]
- IC50 (MCF7): > 10 µM
- IC50 (A549): > 10 µM
- IC50 (BEAS-2B): > 10 µM
- IC50 (SW480): > 10 µM
- IC50 (HL-60): > 10 µM
- IC50 (SMMC-7721): > 10 µM

SMILES: CO[C@@H]1C2=C(C(=O)C(O)=C(C(C)C)C2=O)[C@@]2(C)CCCC(C)(C)[C@H]12
- IC50 (MCF7): > 10 µM
- IC50 (A549): > 10 µM
- IC50 (BEAS-2B): > 10 µM
- IC50 (SW480): > 10 µM
- IC50 (HL-60): > 10 µM
- IC50 (SMMC-7721): > 10 µM

SMILES: Cc1ccc2cc(C(C)C)c(O)c3c2c1C(=O)CCC(C)(C)O3
- IC50 (MCF7): > 10 µM
- IC50 (A549): > 10 µM
- IC50 (BEAS-2B): > 10 µM
- IC50 (SW480): > 10 µM
- IC50 (HL-60): > 10 µM
- IC50 (SMMC-7721): > 10 µM

SMILES: CC(C)C1=C[C@]23CC[C@@H]4C(=CCCC4(C)C)[C@H]2CC(=O)[C@]3(O)C1=O
- IC50 (MCF7): > 10 µM
- IC50 (A549): > 10 µM
- IC50 (BEAS-2B): > 10 µM
- IC50 (SW480): > 10 µM
- IC50 (HL-60): > 10 µM
- IC50 (SMMC-7721): > 10 µM

SMILES: CC(C)c1cc2c(cc1O)C(=O)C[C@H]1C(C)(C)CCC[C@]21C
- IC50 (MCF7): > 10 µM
- IC50 (A549): > 10 µM
- IC50 (BEAS-2B): > 10 µM
- IC50 (SW480): > 10 µM
- IC50 (HL-60): > 10 µM
- IC50 (SMMC-7721): > 10 µM

SMILES: CC(C)c1cc(C(=O)O)c2c(c1O)O[C@]1(O)[C@@](C)(CO)CCC[C@]21C
- IC50 (MCF7): > 10 µM
- IC50 (A549): > 10 µM
- IC50 (BEAS-2B): > 10 µM
- IC50 (SW480): > 10 µM
- IC50 (HL-60): > 10 µM
- IC50 (SMMC-7721): > 10 µM

SMILES: CC(C)c1c(O)c(O)c2c(c1C=O)[C@H](O)[C@H]1C(C)(C)CCC[C@]21C
- IC50 (MCF7): > 10 µM
- IC50 (A549): > 10 µM
- IC50 (BEAS-2B): > 10 µM
- IC50 (SW480): > 10 µM
- IC50 (HL-60): > 10 µM
- IC50 (SMMC-7721): > 10 µM

SMILES: CC(C)c1cc2c(cc1O)[C@@]1(C)CC[C@H](O)C(C)(C)[C@@H]1CC2 [HINOKIOL]
- IC50 (MCF7): > 10 µM
- IC50 (A549): > 10 µM
- IC50 (BEAS-2B): > 10 µM
- IC50 (SW480): > 10 µM
- IC50 (HL-60): > 10 µM
- IC50 (SMMC-7721): > 10 µM

SMILES: CC(C)C1=C(O)C(=O)C2=C(C=C3C(C)(C)CCC[C@@]32C)C1=O
- IC50 (MCF7): > 10 µM
- IC50 (A549): > 10 µM
- IC50 (BEAS-2B): > 10 µM
- IC50 (SW480): > 10 µM
- IC50 (HL-60): > 10 µM
- IC50 (SMMC-7721): > 10 µM

SMILES: CC(C)c1cc2c(c(O)c1O)[C@@]1(C)CCCC(C)(C)C1=C(O)C2=O [14-DEOXYCOLEON U]
- IC50 (MCF7): 5.6 µM
- IC50 (A549): 8.4 µM
- IC50 (BEAS-2B): > 10 µM
- IC50 (SW480): > 10 µM
- IC50 (HL-60): 6.2 µM
- IC50 (SMMC-7721): 9.2 µM

SMILES: CC(C)c1cc(O)c2c(c1O)C(=O)C[C@H]1C(C)(C)CCC[C@]21C
- IC50 (MCF7): > 10 µM
- IC50 (A549): > 10 µM
- IC50 (BEAS-2B): > 10 µM
- IC50 (SW480): > 10 µM
- IC50 (HL-60): > 10 µM
- IC50 (SMMC-7721): > 10 µM

SMILES: CC(C)c1c(O)c(C=O)c2c(c1O)OC(O)[C@H]1C(C)(C)CCC[C@]21C (some centres undefined)
- IC50 (MCF7): > 10 µM
- IC50 (A549): > 10 µM
- IC50 (BEAS-2B): > 10 µM
- IC50 (SW480): > 10 µM
- IC50 (HL-60): > 10 µM
- IC50 (SMMC-7721): > 10 µM
